Results from patent US11608335B2, “Somatostatin modulators and uses thereof” (CRINETICS PHARMACEUTICALS, INC., priority 2018, dated 2023).
Read-outs that look alike come from different tables or passages of the source.

Assays:
[1] = target: T1, Cytochrome P450 (CYP) 2D6 enzyme (Homo sapiens, UniProt P10635); experiment: Cytochrome P450 (CYP) 2D6 enzyme time dependent inhibition (TDI) assay; format: in vitro ADME; details: human liver microsomes
T1 construct: using pooled male and female human liver microsomes; from tissue; host or cells: pooled male and female human liver microsomes
Description: Example B-3: Cytochrome P450 (CYP) 2D6 Enzyme Time Dependent Inhibition (TDI) Assay Protocol
The NADPH-generating system mix was composed of potassium phosphate buffer pH 7.4 (50 mM), NADP+ (1 mM), magnesium chloride (3 mM), EDTA (1 mM), glucose-6-phosphate (5 mM), glucose-6-phosphate dehydrogenase (1 Unit/mL), human liver microsomes (0.1 mg/mL) and water. Compounds of interest in DMSO serial diluted to six different concentrations (final DMSO content of 0.1% v/v) were added to the NADPH-generating system. CYP 2D6 substrate Dextromethorphan was added at a final incubation concentration of 5 μM. The final incubation volume was 200 μL. Incubations were conducted at 37° C. for 10 minutes in a shaking water bath to evaluate the drug candidates as […] of CYP 2D6. In a separate test plate, drug candidates were pre-incubated at 37° C. for 30 minutes in a shaking water bath in NADPH-generating system mix in the absence of Dextromethorphan substrate to allow for the formation of metabolites. This plate was removed from the water bath and placed on ice for 5 minutes. Dextromethorphan substrate was then added and the plate was incubated at 37° C. for 10 minutes in a shaking water bath to determine if any metabolites formed during the 30 minute pre-incubation inhibit the CYP 2D6 enzyme. All incubations were terminated by removing 50 μL of incubation mixture and adding to 200 μL of ice cold acetonitrile containing internal standard. Following precipitation by centrifugation at 3500 rpm and 4° C. for 30 minutes, the resultant supernatant were analyzed by using a multiple reaction monitoring (MRM) LC-MS/MS method detecting for internal standard and the CYP 2D6 enzyme mediated Dextromethorphan O-demethylation metabolite Dextrorphan and IC50 values were determined.
(§1) Table E illustrates representative human liver microsomal stability and time dependent CYP2D6 inhibition (TDI) of exemplary compounds.

[2] = Liver microsomal stability assay; format: in vitro ADME; details: both sexes, human, pooled human liver microsomes; read-out: HLM Stability t½
Description: Example B-2: Liver Microsomal Stability Assay Protocol
The in vitro stabilities of compounds of interest were determined for various species using pooled male and female human, pooled male Sprague-Dawley rat, pooled male Cynomolgus monkey, and pooled male Beagle dog liver microsomes at microsomal protein concentrations of 0.5 mg/mL. Incubations were carried out in a potassium phosphate buffer (50 mM). The NADPH-generating system was composed of NADP+ (1 mM), magnesium chloride (3 mM), EDTA (1 mM), glucose-6-phosphate (5 mM) and glucose-6-phosphate dehydrogenase (1 Unit/mL) for all experiments. Compounds of interest in DMSO/acetonitrile were added to achieve a final incubation concentration of 1 μM (final DMSO content was 0.1% v/v and final acetonitrile content was 0.9%). The final incubation volume was 400 μL. Incubations were conducted at 37° C. for 0, 5, 10, 20, 40 and 60 minutes in a shaking water bath and terminated by removing 50 μL of incubation mixture and adding to 100 μL of ice cold acetonitrile containing internal standard. Following precipitation by centrifugation at 3500 rpm and 4° C. for 30 minutes, compounds of interest and internal standard were analyzed in the resultant supernatant using a multiple reaction monitoring (MRM) LC-MS/MS method. MS conditions were optimized for each analyte.
as §1

[3] = target: T2, human somatostatin receptor subtype 2 (Homo sapiens, UniProt P30874); experiment: cAMP assay for SST2R (inhibition of cAMP via human SST2 receptor); format: cell-based; details: Table B, read-out: SST2 potency
T2 construct: expressed in transfected cells
Excerpt: cAMP Assay Protocol for SST2R:

[4] = target: T3, human somatostatin receptor subtype 3 (Homo sapiens, UniProt P32745); experiment: cAMP assay for SST3R (inhibition of cAMP via human SST3 receptor); format: cell-based; details: from inhibition of cAMP via human SST5 receptor and human SST3 receptor
T3 construct: expressed in transfected cells
Excerpt: cAMP Assay Protocol for SST3R:

[5] = target: human somatostatin receptor subtype 5 (Homo sapiens, UniProt P35346); experiment: cAMP assay for SST5R (inhibition of cAMP via human SST5 receptor); details: for Fold selectivity for SST5 vs SST2: SST5 over SST2, class symbols
[6] = target: T4, human somatostatin receptor subtype 4 (Homo sapiens, UniProt P31391); experiment: cAMP assay for hSST4R (inhibition of cAMP via human SST4 receptor); format: cell-based; details: from inhibition of cAMP via human SST5 receptor and human SST4 receptor
T4 construct: expressed in transfected cells
Excerpt: cAMP Assay Protocol hSST4R:

[7] = t = 0 min pre-incubation, read-out: CYP2D6 inhibition, IC50 (μM) t = 0 min
[8] = t = 30 min pre-incubation, read-out: CYP2D6 inhibition, IC50 (μM) t = 30 min
[9] = read-out: SST5 potency, inhibition of cAMP via human SST5 receptor, Table B

T1 sequence (P10635 whole entry): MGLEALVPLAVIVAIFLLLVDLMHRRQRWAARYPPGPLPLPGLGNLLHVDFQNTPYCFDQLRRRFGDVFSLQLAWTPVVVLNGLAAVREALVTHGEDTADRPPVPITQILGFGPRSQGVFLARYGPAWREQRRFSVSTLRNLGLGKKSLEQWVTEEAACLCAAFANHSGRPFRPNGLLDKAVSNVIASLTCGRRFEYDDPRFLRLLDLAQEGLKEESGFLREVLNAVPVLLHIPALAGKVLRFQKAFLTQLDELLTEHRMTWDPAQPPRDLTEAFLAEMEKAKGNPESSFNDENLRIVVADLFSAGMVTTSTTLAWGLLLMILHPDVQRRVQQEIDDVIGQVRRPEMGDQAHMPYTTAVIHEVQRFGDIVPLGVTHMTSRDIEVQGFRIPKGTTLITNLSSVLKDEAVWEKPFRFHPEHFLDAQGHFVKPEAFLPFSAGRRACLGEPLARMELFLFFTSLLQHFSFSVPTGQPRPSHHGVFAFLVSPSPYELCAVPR
T4 sequence (P31391 whole entry): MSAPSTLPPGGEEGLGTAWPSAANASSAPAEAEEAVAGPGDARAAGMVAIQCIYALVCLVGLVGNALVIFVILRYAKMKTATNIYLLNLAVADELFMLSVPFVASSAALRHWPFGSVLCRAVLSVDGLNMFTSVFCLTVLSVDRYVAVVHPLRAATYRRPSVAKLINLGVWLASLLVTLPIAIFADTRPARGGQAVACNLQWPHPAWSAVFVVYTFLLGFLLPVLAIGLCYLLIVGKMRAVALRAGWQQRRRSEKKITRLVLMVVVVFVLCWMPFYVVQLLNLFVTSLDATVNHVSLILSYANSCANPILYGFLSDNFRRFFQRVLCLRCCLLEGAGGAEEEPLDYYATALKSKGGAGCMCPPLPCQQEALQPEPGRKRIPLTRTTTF
T2 sequence (P30874 whole entry): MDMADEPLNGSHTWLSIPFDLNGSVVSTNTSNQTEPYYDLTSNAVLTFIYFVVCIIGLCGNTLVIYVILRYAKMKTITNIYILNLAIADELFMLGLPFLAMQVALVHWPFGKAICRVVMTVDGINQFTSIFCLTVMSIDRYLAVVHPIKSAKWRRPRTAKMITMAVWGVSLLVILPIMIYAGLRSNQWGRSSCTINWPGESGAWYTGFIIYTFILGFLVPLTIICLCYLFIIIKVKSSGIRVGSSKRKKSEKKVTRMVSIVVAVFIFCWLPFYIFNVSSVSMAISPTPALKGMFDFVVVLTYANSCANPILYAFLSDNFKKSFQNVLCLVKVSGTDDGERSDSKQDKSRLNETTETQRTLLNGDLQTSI
T3 sequence (P32745 whole entry): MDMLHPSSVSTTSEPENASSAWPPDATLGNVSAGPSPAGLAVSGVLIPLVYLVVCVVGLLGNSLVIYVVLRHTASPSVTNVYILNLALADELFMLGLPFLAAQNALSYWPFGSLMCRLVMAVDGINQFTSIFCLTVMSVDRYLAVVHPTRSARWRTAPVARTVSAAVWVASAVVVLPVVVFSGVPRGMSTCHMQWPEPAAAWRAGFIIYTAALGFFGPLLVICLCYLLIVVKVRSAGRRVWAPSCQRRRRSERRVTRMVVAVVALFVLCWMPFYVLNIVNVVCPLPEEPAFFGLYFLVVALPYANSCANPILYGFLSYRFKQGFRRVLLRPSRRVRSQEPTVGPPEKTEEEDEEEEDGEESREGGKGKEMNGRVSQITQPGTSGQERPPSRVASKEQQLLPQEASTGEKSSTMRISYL
human somatostatin receptor subtype 5, sequence (P35346 whole entry): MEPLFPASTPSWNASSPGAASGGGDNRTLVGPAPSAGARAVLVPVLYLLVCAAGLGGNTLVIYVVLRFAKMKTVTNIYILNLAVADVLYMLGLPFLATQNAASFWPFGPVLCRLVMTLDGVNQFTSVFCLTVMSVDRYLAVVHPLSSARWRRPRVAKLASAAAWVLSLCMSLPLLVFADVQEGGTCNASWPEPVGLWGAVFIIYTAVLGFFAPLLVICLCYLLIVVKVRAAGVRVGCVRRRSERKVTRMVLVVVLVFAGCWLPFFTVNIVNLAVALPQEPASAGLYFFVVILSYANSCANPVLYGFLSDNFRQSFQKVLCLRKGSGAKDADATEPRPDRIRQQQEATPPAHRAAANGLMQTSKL

| IC50 [1, 7] [µM] | IC50 [1, 8] [µM] | half-life at 1 μM [2] [h] | EC50 [3] [µM] | Fold selectivity for SST5 vs SST3 [4] [fold] | EC50 [5] [µM] | Fold selectivity for SST5 vs SST2 [5] | EC50 [5, 9] [µM] | Fold selectivity for SST5 vs SST4 [6] [fold] | Compound |
| --- | --- | --- | --- | --- | --- | --- | --- | --- | --- |
| > 10 | > 10 | > 11.6 |  |  |  |  |  |  | Cc1cccc2[nH]c(-c3cncc(-c4cc(F)cc(C#N)c4)c3N3CC[C@H](N)C3)nc12 [Compound 2-34, 3-{4-[(3S)-3-aminopyrrolidin-1-yl]-5-(4-methyl-1H-1,3-benzodiazol-2-yl)pyridin-3-yl}-5-fluorobenzonitrile] |
|  |  |  | > 1 | 200 | < 0.01 | +++ (+++=≥500) | < 0.01 | 812 | CCC(N)C1CN(c2c(-c3cc(C)cc(F)c3)cncc2-c2nc3cc(F)cc(F)c3[nH]2)C1 (centres unmarked) [Compound 1-51, 1-{1-[3-(4,6-difluoro-1H-1,3-benzodiazol-2-yl)-5-(3-fluoro-5-methylphenyl)pyridin-4-yl]azetidin-3-y}propan-1-amine] |
|  |  |  | 0.1 to 1 | 42 | < 0.01 | +++ (+++=≥500) | < 0.01 | 11 | Cc1ccc(F)c2nc(-c3cncc(-c4cccc(C#N)c4)c3N3CC[C@H](N)C3)[nH]c12 [Compound 2-101, 3-{4-[(3S)-3-aminopyrrolidin-1-yl]-5-(7-fluoro-4-methyl-1H-1,3-benzodiazol-2-yl)pyridin-3-yl}benzonitrile] |
| > 10 | > 10 | 2.32 | 0.01 to 0.1 | 16 | < 0.01 | + (+=10 to 99) | < 0.01 |  | Cc1ccnc2nc(-c3cncc(-c4ccc(F)c(F)c4)c3N3CC[C@](C)(N)C3)[nH]c12 [Compound 2-190, (3S)-1-[3-(3,4-difluorophenyl)-5-{7-methyl-1H-imidazo[4,5-b]pyridin-2-yl}pyridin-4-yl]-3-methylpyrrolidin-3-amine] |
| > 10 | > 10 | > 11.6 | 0.01 to 0.1 | 27 | < 0.01 | ++ (++=100 to 499) | < 0.01 |  | COc1cc(-c2cncc(-c3nc4nccc(C)c4[nH]3)c2N2CC[C@](C)(N)C2)ccc1F [Compound 2-189, (3S)-1-[3-(4-fluoro-3-methoxyphenyl)-5-{7-methyl-1H-imidazo[4,5-b]pyridin-2-yl}pyridin-4-yl]-3-methylpyrrolidin-3-amine] |
|  |  |  | 0.1 to 1 | >1000 | < 0.01 | +++ (+++=≥500) | < 0.01 | 384 | CC(N)C1CN(c2c(-c3ccc(F)c(C#N)c3)cncc2-c2nc3cc(F)cc(F)c3[nH]2)C1 (centres unmarked) [Compound 1-65, 5-{4-[3-(1-aminoethyl)azetidin-1-yl]-5-(4,6-difluoro-1H-1,3-benzodiazol-2-yl)pyridin-3-yl}-2-fluorobenzonitrile] |
| > 10 | 2.9 | 0.683 | 0.1 to 1 | 93 | < 0.01 | ++ (++=100 to 499) | < 0.01 |  | COc1cc(-c2cncc(-c3nc4c(F)cccc4[nH]3)c2N2CC[C@](C)(N)C2)ccn1 [Compound 2-187, (3S)-1-[5-(4-fluoro-1H-1,3-benzodiazol-2-yl)-2′-methoxy-[3,4′-bipyridin]-4-yl]-3-methylpyrrolidin-3-amine] |
|  |  |  | 0.1 to 1 | 183 | < 0.01 | +++ (+++=≥500) | < 0.01 | 18 | C[C@]1(N)CCN(c2c(-c3ccc(F)c(C#N)c3)cncc2-c2nc3cccc(C#N)c3[nH]2)C1 [Compound 2-171, 2-{4-[(3S)-3-amino-3-methylpyrrolidin-1-yl]-5-(3-cyano-4-fluorophenyl)pyridin-3-yl}-1H-1,3-benzodiazole-7-carbonitrile] |
| > 10 | 9.7 | 3.85 | > 1 | 147 | < 0.01 | ++ (++=100 to 499) | < 0.01 |  | Cc1cc(-c2cncc(-c3nc4c(F)cccc4[nH]3)c2N2CC[C@](C)(N)C2)ccn1 [Compound 2-178, (3S)-1-[5-(4-fluoro-1H-1,3-benzodiazol-2-yl)-2′-methyl-[3,4′-bipyridin]-4-yl]-3-methylpyrrolidin-3-amine] |
|  |  |  | 0.1 to 1 | 43 | < 0.01 | +++ (+++=≥500) | < 0.01 | 18 | Cc1ccc(F)c2[nH]c(-c3cncc(-c4cc(F)cc(C#N)c4)c3N3CC[C@H](N)C3)nc12 [Compound 2-63, 3-{4-[(3S)-3-aminopyrrolidin-1-yl]-5-(7-fluoro-4-methyl-1H-1,3-benzodiazol-2-yl)pyridin-3-yl}-5-fluorobenzonitrile] |
|  |  |  | 0.1 to 1 |  | < 0.01 | +++ (+++=≥500) | < 0.01 | 63 | Cc1cccc2nc(-c3cncc(-c4ccnc(C#N)c4)c3N3CC[C@](C)(N)C3)[nH]c12 [Compound 2-145, 4-[(3S)-3-amino-3-methylpyrrolidin-1-yl]-5-(4-methyl-1H-1,3-benzodiazol-2-yl)-[3,4′-bipyridine]-2′-carbonitrile] |
| 5.4 | 1.1 | 5.78 | 0.1 to 1 | 158 | < 0.01 | +++ (+++=≥500) | < 0.01 |  | C[C@]1(N)CCN(c2c(-c3ccnc(C(F)(F)F)c3)cncc2-c2nc3c(F)cccc3[nH]2)C1 [Compound 2-186, (3S)-1-[5-(4-fluoro-1H-1,3-benzodiazol-2-yl)-2′-(trifluoromethyl)-[3,4′-bipyridin]-4-yl]-3-methylpyrrolidin-3-amine] |
|  |  |  | 0.1 to 1 | 159 | < 0.01 | +++ (+++=≥500) | < 0.01 | 136 | C[C@]1(N)CCN(c2c(-c3cccc(C#N)c3)cncc2-c2nc3c(F)cccc3[nH]2)C1 [Compound 2-200, 3-{4-[(3S)-3-amino-3-methylpyrrolidin-1-yl]-5-(4-fluoro-1H-1,3-benzodiazol-2-yl)pyridin-3-yl}benzonitrile] |
|  |  |  | 0.1 to 1 |  | < 0.01 | ++ (++=100 to 499) | < 0.01 | 56 | Cc1ccnc2[nH]c(-c3cncc(-c4cc(F)c(F)c(C#N)c4)c3N3CC[C@](C)(N)C3)nc12 [Compound 2-165, 5-{4-[(3S)-3-amino-3-methylpyrrolidin-1-yl]-5-{7-methyl-1H-imidazo[4,5-b]pyridin-2-yl}pyridin-3-yl}-2,3-difluorobenzonitrile] |
